Reference: patent US10167258B2, “Inhibitors of mitochondrial pyruvate dehydrogenase kinase isoforms 1-4 and uses thereof” (The Board of Regents of the University of Texas System, priority 2013, dated 2019)

Key:
PDP1 = target: T1, PDP1 (Homo sapiens, UniProt Q9P0J1); assay: PDP1 activity in vitro; type: biochemical; details: at up to 1 mM
T1 sequence (Q9P0J1 72-537): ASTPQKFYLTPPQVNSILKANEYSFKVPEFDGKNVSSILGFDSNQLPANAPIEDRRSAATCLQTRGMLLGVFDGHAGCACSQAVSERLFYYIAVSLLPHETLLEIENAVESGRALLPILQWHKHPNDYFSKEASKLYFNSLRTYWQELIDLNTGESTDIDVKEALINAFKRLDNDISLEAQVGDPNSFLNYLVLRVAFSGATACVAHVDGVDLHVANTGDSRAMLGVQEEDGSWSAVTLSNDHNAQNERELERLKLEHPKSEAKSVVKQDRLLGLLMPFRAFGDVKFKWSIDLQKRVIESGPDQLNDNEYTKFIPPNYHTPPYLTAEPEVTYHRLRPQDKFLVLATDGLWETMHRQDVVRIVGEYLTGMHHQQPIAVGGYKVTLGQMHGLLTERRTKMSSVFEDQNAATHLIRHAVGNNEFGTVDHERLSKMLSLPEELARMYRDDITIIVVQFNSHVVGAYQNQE

[1] = tested on: phosphorylated E1α subunit; assay: Western blotting of phosphorylated E1α subunit in tissues of DIO mice; type: in vivo; details: single dose 70 mg/kg IP, 10 h
Experimental: Six- to eight-week old C57BL/6J male mice were obtained from the local campus breeding colony at UT Southwestern Medical Center (Dallas, Tex.) and randomized into two groups: vehicle- and PS10-treated. Prior to the treatment, mice were fed with a 60% high-fat diet, which contained 32% saturated and 68% unsaturated fat (catalog number: D12492, Research Diet Inc. New Brunswick, N.J.), for eight to ten weeks to produce DIO animals. PS-10 was dissolved in 100% DMSO and then diluted to make a 10% DMSO aqueous solution containing 17.5% (w/v) (2-hydroxypropyl)-β-cyclodextrin for delivery. Animals were dosed at mid-day by intraperitoneal (IP) injections at 70 mg/kg using 1-ml syringe and 30-gauge needle. The length of the treatment is indicted in each experiment. At 10 h after the last injection, animals were euthanized using carbon dioxide asphyxiation followed by cervical dislocation and dissection. Blood was harvested by cardiac puncture and stored on ice. Acidified citrate dextrose (ACD) was used as an anticoagulant. Immediately after blood collection, heart, liver, kidneys and both hind-leg quadriceps muscles were removed and snap frozen in liquid nitrogen. Average ischemia time before organ harvest was about 2 to 3 min. Blood was centrifuged in an Eppendorf 5415R refrigerated microcentrifuge at 9,300×g for 5 min to isolate plasma, which was subsequently stored at −80° C. […]

DIO mice = assay: Histochemistry of the liver (Oil Red O) of DIO mice; type: in vivo; details: 70 mg/kg/day
Experimental: Histological examination of the liver was performed in the institutional Immunohistochemistry Laboratory. Liver tissue was dissected, grossly trim then fixed by immersion for 48 hrs in 4% Formalin/PBS (4% […], 137 mM NaCl, 2.7 mM KCl and 10 mM phosphate buffer, pH 7.5) at 4° C. Liver samples were then transferred to 10% (w/v) sucrose in PBS and incubate at 4° C. for 24 hrs. Tissues were incubated in 18% sucrose in PBS at 4° C. for 24 hours. Finally, samples were transferred to a fresh 18% sucrose solution and embedded in OCT (Optimal cutting temperature compound), cryo-sectioned and stained with Oil Red O.

PDC [2] = assay: PDC flux in perfused hearts from DIO mice by hyperpolarized 13C NMR; details: single dose 70 mg/kg IP, 8-hr
Experimental: Metabolism of [1-^13C]pyruvate to [1-^13C]alanine, [1-^13C]lactate, H^13CO3^− and ^13CO2 were detected in real time by ^13C NMR spectra, following the injection of 2 mM HP [1-^13C]pyruvate into perfused heart (FIG. 10A).

PDC [3] = assay: Assay for PDC activity in tissues of treated DIO mice; type: in vivo; details: single dose 70 mg/kg IP, 10 h
Experimental: Six- to eight-week old C57BL/6J male mice were obtained from the local campus breeding colony at UT Southwestern Medical Center (Dallas, Tex.) and randomized into two groups: vehicle- and PS10-treated. Prior to the treatment, mice were fed with a 60% high-fat diet, which contained 32% saturated and 68% unsaturated fat (catalog number: D12492, Research Diet Inc. New Brunswick, N.J.), for eight to ten weeks to produce DIO animals. PS-10 was dissolved in 100% DMSO and then diluted to make a 10% DMSO aqueous solution containing 17.5% (w/v) (2-hydroxypropyl)-β-cyclodextrin for delivery. Animals were dosed at mid-day by intraperitoneal (IP) injections at 70 mg/kg using 1-ml syringe and 30-gauge needle. The length of the treatment is indicted in each experiment. At 10 h after the last injection, animals were euthanized using carbon dioxide asphyxiation followed by cervical dislocation and dissection. Blood was harvested by cardiac puncture and stored on ice. Acidified citrate dextrose (ACD) was used as an anticoagulant. Immediately after blood collection, heart, liver, kidneys and both hind-leg quadriceps muscles were removed and snap frozen in liquid nitrogen. Average ischemia time before organ harvest was about 2 to 3 min. Blood was centrifuged in an Eppendorf 5415R refrigerated microcentrifuge at 9,300×g for 5 min to isolate plasma, which was subsequently stored at −80° C.
Liquid nitrogen-stored tissue samples were removed and thawed on ice. Individual kidneys (200-250 mg), hearts (200-300 mg), muscle (200-300 mg) and liver (250-400 mg) tissues samples were manually homogenized in an ice-chilled glass homogenizer containing 1 ml of the homogenization buffer. The homogenization buffer contained 30 mM KPi, pH 7.5, 3 mM EDTA, 5 mM DTT, 1 mM benzamidine, 3% fetal bovine serum, 5% Triton X-100 and 1 mM leupeptin. Samples were transferred to ice-cold 10 ml polycarbonate tubes and spun in an ultracentrifuge at 25,000×g for 10 min to pellet cell and tissue debris. Supernatants were removed and stored on ice until diluted (1:3 for muscle, 1:5 for liver and 1:20 for kidneys and heart tissues) with a dilution buffer containing 50 mM HEPES, pH 7.5, 1.0 mM DTT, 0.1% Triton X-100, 5 mM DCA, 50 mM NaF, 3% fetal bovine serum and 1 mM leupeptin. The diluted samples (50 μl) were placed in each well of a 24-well plate containing 310 μl of the reaction mixture. A micro-bridge (Hampton Research) was pre-set into each well holding one piece of filter wick pre-soaked with 2 M NaOH. […] Assay plates were incubated further at 37° C. for 45 min. ^14CO2-trapped on 2 M NaOH soaked filter wicks were counted in a liquid scintillation counter. Total protein concentrations in the samples were determined by using BCA protein assay kit (Thermo fisher Scientific, Rockford, Ill.).

**Q.** `O=S(=O)(c1ccc(O)cc1O)N1Cc2cc(O)cc(O)c2C1` [PS10, 2-((2,4-dihydroxyphenyl)sulfonyl)isoindoline-4,6-diol] was tested. Which “effect on PDP1 activity in vitro” value (PDP1) did it give?
**A.** Its value is “without effect”.

**Q.** And the “amounts of the phosphorylated E1α subunit in heart and liver vs vehicle-treated” value [1]?
**A.** Its value is “significantly decreased”.

**Q.** And the “fat in the liver, Oil Red O stain” value (DIO mice)?
**A.** Its value is “larger amounts of fat were present in the liver of the vehicle-treated DIO mice compared with PS10-treated”.

**Q.** And the “cardiac PDC flux in DIO mice” value (PDC [2])?
**A.** Its value is “smaller increase”.

**Q.** What about the “PDC activity in heart, fold over vehicle-treated” value (PDC [3]) of the same molecule?
**A.** The value was 11 fold.

**Q.** And the “PDC activity in kidneys, fold enhancement over vehicle-treated” value (PDC [3])?
**A.** Its value is 1.4 fold.

**Q.** And the “PDC activity in liver, fold over vehicle-treated” value (PDC [3])?
**A.** The value was 23 fold.

**Q.** What about the “PDC activity in quadriceps muscle vs vehicle-treated” value (PDC [3]) of the same molecule?
**A.** The value was “no difference”.
